Key:
[1] = Inhibition of TNF-α release from LPS stimulated isolated human PBMC; type: cell-based; settings: Homo sapiens, PBMC, read-out: IC50 (nM) for inhibition of TNF-α release
Protocol: The anti-inflammatory activity of the compounds against human leukocytes in vitro was also evaluated by determining inhibition of tumour necrosis factor-α (TNF-α) release from lipopolysaccharide (LPS) stimulated isolated human peripheral mononuclear cells (PBMC).
Peripheral venous blood from healthy, non-medicated donors was collected using ethylenediaminetetraacetic acid (EDTA) as the anti-coagulant. For PBMC preparation, samples of blood were diluted 1:1 with sterile phosphate buffered saline and then separated using ACCUSPIN™ System-Histopaque®-1077 tubes (Sigma-Aldrich, St Louis, Mo.), centrifuged at 400 g for 35 minutes. Buffy coat cells were removed into PBS, centrifuged at 200 g for 10 minutes and re-suspended in PBMC assay buffer (Hanks Balanced Salt Solution, 0.28% [w/v] 4-[2-hydroxyethyl]-1-piperazineethanesulfonic acid [HEPES], 0.01% [w/v] low-endotoxin bovine serum albumin [BSA]. A differential white cell count was performed and PBMC's diluted to 1×10^6 lymphocytes per ml in PBMC assay buffer.
Test compounds were dissolved in DMSO and diluted in PBMC assay buffer (final DMSO concentration 1%) to cover an appropriate concentration range, e.g 0.001 nM to 10000 nM. Samples of test compound solution or vehicle (20 μl) were added into 96-well tissue culture treated plates (Corning) and PBMC (160 μl) added to each well. The assay mixtures were incubated at 37° C. for 1 h in a humidified incubator containing an atmosphere of air supplemented with 5% CO2 before adding LPS (20 μl of 100 ng/ml for PBMC). Plates were returned to the incubator for a further 18 hours, and then centrifuged before recovery of samples of supernatant. TNF-α in the samples was determined using an enzyme-linked immunosorbent assay (ELISA) (Invitrogen kit no CHC-1754; Invitrogen Carlsbad, Calif.) and following the manufacturers instructions. Dose response curves were constructed from which IC50 values were calculated.

[2] = molecular target: T1, human GR (Homo sapiens, UniProt P04150); assay: GR agonist potency, MMTV-luciferase reporter in SW1353 cells; type: cell-based; settings: human chondrosarcoma cell-line SW1353 stably transfected with MMTV-luciferase reporter; approx. 18 hours; data as percentage of 1 μM dexamethasone positive control
T1 construct: SW1353 naturally expresses human GR; endogenous in cells; host or cells: human chondrosarcoma cell-line SW1353 stably transfected with an MMTV-luciferase reporter construct
T1 sequence (P04150 1-777): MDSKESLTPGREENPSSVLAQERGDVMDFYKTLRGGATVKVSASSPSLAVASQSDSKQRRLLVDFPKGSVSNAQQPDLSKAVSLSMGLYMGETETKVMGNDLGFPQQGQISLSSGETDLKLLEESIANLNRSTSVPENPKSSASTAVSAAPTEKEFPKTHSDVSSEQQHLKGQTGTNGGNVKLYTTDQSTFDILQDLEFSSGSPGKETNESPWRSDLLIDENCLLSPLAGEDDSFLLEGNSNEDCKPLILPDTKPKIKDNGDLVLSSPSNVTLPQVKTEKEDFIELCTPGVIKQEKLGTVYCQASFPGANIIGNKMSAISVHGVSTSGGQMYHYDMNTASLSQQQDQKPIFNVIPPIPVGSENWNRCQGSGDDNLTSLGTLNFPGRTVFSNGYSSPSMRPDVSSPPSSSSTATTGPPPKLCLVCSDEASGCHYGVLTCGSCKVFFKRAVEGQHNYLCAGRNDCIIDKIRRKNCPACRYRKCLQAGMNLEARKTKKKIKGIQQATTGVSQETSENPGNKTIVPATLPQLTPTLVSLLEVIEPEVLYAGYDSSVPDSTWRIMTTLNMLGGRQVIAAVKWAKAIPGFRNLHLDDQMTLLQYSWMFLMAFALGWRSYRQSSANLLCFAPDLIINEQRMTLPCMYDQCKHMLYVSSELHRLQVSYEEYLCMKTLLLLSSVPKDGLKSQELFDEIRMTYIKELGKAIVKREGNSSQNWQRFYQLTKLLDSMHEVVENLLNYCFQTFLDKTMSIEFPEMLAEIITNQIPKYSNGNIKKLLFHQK
Protocol: Glucococorticoid receptor (GR) agonist potency was determined in the human chondrosarcoma cell-line SW1353 stably transfected with an MMTV-luciferase reporter construct. SW1353 naturally expresses human GR, which on binding a glucocorticoid agonist activates glucocorticoid response elements within the MMTV promoter, driving expression of the luciferase gene.
Frozen SW1353 cells were revived in DMEM medium, without sodium pyruvate or phenol red, supplemented with 2 mM L-glutamine, 1 μg/ml insulin, 2 mg/ml lactalbumin hydrosylate and 0.5 μg/ml ascorbate. Cells were seeded at approximately 5000 cells/well (35 μl/well) in 384-well clear bottom, tissue culture treated plates. Steroid dose-response dilutions were prepared in steroid diluent (PBS containing 2.5% (v/v) DMSO and 0.05% (v/v) pluronic detergent) and 5 μl added to each well. The volume was made up to 50 μl per well with steroid diluent. Positive control wells contained 1 μM dexamethasone. Plates were incubated for approximately 18 hours at 37° C. in an air/5% CO2 atmosphere in a humidified incubator before Britelite reagent (10 μl; Perkin-Elmer) was added to each well. Each plate was incubated for 2 minutes in the dark and luminescence quantified using a LJL Biosystems Analyst luminometer. Data for test compounds (expressed as percentage of the dexamethasone positive control) were used to construct dose response curves from which EC50 values were estimated.

Row | Structure (SMILES) | IC50 [1] [nM] | EC50 [2] [nM]
1 | C[C@]12C=CC(=O)C=C1[C@@H](F)C[C@H]1[C@@H]3CC[C@](OC(=O)c4ccc(Cc5ccccc5)cc4)(C(=O)OCC#N)[C@@]3(C)C[C@H](O)[C@@]12F [Example 1, cyanomethyl(6alpha,11beta,17alpha)-17-[(4-benzylbenzoyl)oxy]-6,9-difluoro-11-hydroxy-3-oxoandrosta-1,4-diene-17-carboxylate] | 0.095 | 22.3
2 | C[C@]12C=CC(=O)C=C1[C@@H](F)C[C@H]1[C@@H]3CC[C@](OC(=O)c4ccc(-c5ccccc5)cc4)(C(=O)OCC#N)[C@@]3(C)C[C@H](O)[C@@]12F [Example 2, Cyanomethyl(6alpha,11beta,17alpha)-17-[(biphenyl-4-ylcarbonyl)oxy]-6,9-difluoro-11-hydroxy-3-oxoandrosta-1,4-diene-17-carboxylate] | 0.373 | 115
3 | C[C@]12C=CC(=O)C=C1[C@@H](F)C[C@H]1[C@@H]3CC[C@](OC(=O)c4ccc(Sc5ccccc5)cc4)(C(=O)OCC#N)[C@@]3(C)C[C@H](O)[C@@]12F [Example 3, cyanomethyl (6alpha,11beta,17alpha)-6,9-difluoro-11-hydroxy-3-oxo-17-{[4-(phenylthio)benzoyl]oxy}androsta-1,4-diene-17-carboxylate] | 0.143 | 50.5
4 | C[C@]12C=CC(=O)C=C1[C@@H](F)C[C@H]1[C@@H]3CC[C@](OC(=O)c4ccc(Oc5ccccc5)cc4)(C(=O)OCC#N)[C@@]3(C)C[C@H](O)[C@@]12F [Example 4, cyanomethyl (6alpha,11beta,17alpha)-6,9-difluoro-11-hydroxy-3-oxo-17-[(4-phenoxybenzoyl)oxy]androsta-1,4-diene-17-carboxylate] | 0.154 | 23.6
5 | C[C@]12C=CC(=O)C=C1[C@@H](F)C[C@H]1[C@@H]3CC[C@](OC(=O)c4ccc(CSc5ccccc5)cc4)(C(=O)OCC#N)[C@@]3(C)C[C@H](O)[C@@]12F [Example 5, cyanomethyl (6alpha,11beta,17alpha)-6,9-difluoro-11-hydroxy-3-oxo-17-({4-[(phenylthio)methyl]benzoyl}oxy)androsta-1,4-diene-17-carboxylate] | 0.152 | 33.3
6 | C[C@]12C=CC(=O)C=C1[C@@H](F)C[C@H]1[C@@H]3CC[C@](OC(=O)c4ccc(SCc5ccc(O)cc5)cc4)(C(=O)OCC#N)[C@@]3(C)C[C@H](O)[C@@]12F [Example 6, cyanomethyl (6alpha,11beta,17alpha)-6,9-difluoro-11-hydroxy-17-({4-[(4-hydroxybenzyl)thio]benzoyl}oxy)-3-oxoandrosta-1,4-diene-17-carboxylate] | 0.207 | 23.5
7 | C[C@]12C=CC(=O)C=C1CC[C@H]1[C@@H]3CC[C@](OC(=O)c4ccc(-c5ccccc5)cc4)(C(=O)OCC#N)[C@@]3(C)C[C@H](O)[C@@]12F [Example 7, cyanomethyl (11beta,17alpha)-17-[(biphenyl-4-ylcarbonyl)oxy]-9-fluoro-11-hydroxy-3-oxoandrosta-1,4-diene-17-carboxylate] | 0.555 | 39.9
8 | C[C@]12C=CC(=O)C=C1CC[C@H]1[C@@H]3CC[C@](OC(=O)c4ccc(Sc5ccccc5)cc4)(C(=O)OCC#N)[C@@]3(C)C[C@H](O)[C@@]12F [Example 8, cyanomethyl (11beta,17alpha)-9-fluoro-11-hydroxy-3-oxo-17-{[4-(phenylthio)benzoyl]oxy}androsta-1,4-diene-17-carboxylate] | 0.292 | 25
9 | CSc1cccc(Sc2ccc(C(=O)O[C@]3(C(=O)OCC#N)CC[C@H]4[C@@H]5CCC6=CC(=O)C=C[C@]6(C)[C@@]5(F)[C@@H](O)C[C@@]43C)cc2)c1 [Example 10, cyanomethyl (11beta,17alpha)-9-fluoro-11-hydroxy-17-[(4-{[3-(methylthio)-phenyl]thio}benzoyl)oxy]-3-oxoandrosta-1,4-diene-17-carboxylate] | 0.826 | 62.1
10 | C[C@]12C=CC(=O)C=C1[C@@H](F)C[C@H]1[C@@H]3CC[C@](OC(=O)c4ccc(CSc5ccc(O)cc5)cc4)(C(=O)OCC#N)[C@@]3(C)C[C@H](O)[C@@]12F [Example 11, cyanomethyl(6alpha,11beta,17alpha)-6,9-difluoro-11-hydroxy-17-[(4-{[(4-hydroxyphenyl)thio]methyl}benzoyl)oxy]-3-oxoandrosta-1,4-diene-17-carboxylate] | 0.735 | 30.2
11 | C[C@]12C=CC(=O)C=C1CC[C@H]1[C@@H]3CC[C@](OC(=O)c4ccc(Oc5ccc(O)c(Cl)c5)cc4)(C(=O)SCC#N)[C@@]3(C)C[C@H](O)[C@@]12F [Example 12, (11beta,17alpha)-17-{[(cyanomethyl)thio]-carbonyl}-9-fluoro-11-hydroxy-3-oxoandrosta-1,4-dien-17-yl 4-(3-chloro-4-hydroxyphenoxy)benzoate] | 0.345 | 117
12 | C[C@]12C=CC(=O)C=C1CC[C@H]1[C@@H]3CC[C@](OC(=O)c4ccc(Sc5ccc(O)c(Cl)c5)cc4)(C(=O)SCC#N)[C@@]3(C)C[C@H](O)[C@@]12F [Example 13, (11beta,17alpha)-17-{[(cyanomethyl)thio]carbonyl}-9-fluoro-11-hydroxy-3-oxoandrosta-1,4-dien-17-yl 4-[(3-chloro-4-hydroxyphenyl)thio]benzoate] | 0.799 | 80.9
13 | C[C@]12C=CC(=O)C=C1CC[C@H]1[C@@H]3CC[C@](OC(=O)c4ccc(Oc5ccccc5)cc4)(C(=O)OCC#N)[C@@]3(C)C[C@H](O)[C@@]12F [Example 14, cyanomethyl(11beta,17alpha)-9-fluoro-11-hydroxy-3-oxo-17-[(4-phenoxybenzoyl)oxy]androsta-1,4-diene-17-carboxylate] | 0.234 | 23.9
14 | C[C@]12C=CC(=O)C=C1CC[C@H]1[C@@H]3CC[C@](OC(=O)c4ccc(Sc5cccc(O)c5)cc4)(C(=O)OCC#N)[C@@]3(C)C[C@H](O)[C@@]12F [Example 15, cyanomethyl(11beta,17alpha)-9-fluoro-11-hydroxy-17-({4-[(3-hydroxyphenyl)thio]-benzoyl}oxy)-3-oxoandrosta-1,4-diene-17-carboxylate] | 0.164 | 35.1
15 | C[C@]12C=CC(=O)C=C1CC[C@H]1[C@@H]3CC[C@](OC(=O)c4ccc(Oc5ccc(O)cc5)cc4)(C(=O)OCC#N)[C@@]3(C)C[C@H](O)[C@@]12F [Example 16, cyanomethyl (11beta,17alpha)-9-fluoro-11-hydroxy-17-{[4-(4-hydroxyphenoxy)benzoyl]oxy}-3-oxoandrosta-1,4-diene-17-carboxylate] | 0.067 | 24
